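All cell lines were grown in 96-well plates and treated with compound for 48 hours. At the GI50, growth is halved.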 Active and inactive are the calls of the source. No stated cut-off is given here; in the data, active = GI50 up to about 1.1 µM and inactive = higher.
Key:
Experiment in all cases: growth of human tumour cells (NCI), 48 h
TK-10 = system: TK-10
SNB-19 = system: SNB-19
CCRF-CEM = system: CCRF-CEM
SK-MEL-5 = system: SK-MEL-5
786-0 = system: 786-0
SF-268 = system: SF-268
RXF 393 = system: RXF 393
SN12C = system: SN12C
MOLT-4 = system: MOLT-4
SR = system: SR
UACC-62 = system: UACC-62
RPMI-8226 = system: RPMI-8226
CAKI-1 = system: CAKI-1
HCT-116 = system: HCT-116
T47D = system: T47D
SK-MEL-28 = system: SK-MEL-28
Hs-578T = system: Hs-578T
NCI-H23 = system: NCI-H23
SK-OV-3 = system: SK-OV-3
UO-31 = system: UO-31

SMILES	GI50 (TK-10)	GI50 (SNB-19)	GI50 (CCRF-CEM)	GI50 (SK-MEL-5)	GI50 (786-0)	GI50 (SF-268)	GI50 (RXF 393)	GI50 (SN12C)	GI50 (MOLT-4)	GI50 (SR)	GI50 (UACC-62)	GI50 (RPMI-8226)	GI50 (CAKI-1)	GI50 (HCT-116)	GI50 (T47D)	GI50 (SK-MEL-28)	GI50 (Hs-578T)	GI50 (NCI-H23)	GI50 (SK-OV-3)	GI50 (UO-31)
COc1cc(C2CC(C)(O)Oc3cc4c(cc32)OCO4)cc(OC)c1OC (configuration not stated)	61 µM (inactive)	0.617 µM (active)	0.34 µM (active)	0.208 µM (active)	0.375 µM (active)	0.962 µM (active)	0.137 µM (active)	0.977 µM (active)	0.451 µM (active)	0.374 µM (active)	0.23 µM (active)	0.325 µM (active)	0.417 µM (active)	0.449 µM (active)	0.296 µM (active)	0.569 µM (active)	0.263 µM (active)	0.474 µM (active)		
CCn1c(=O)c2c3ccc(OC)cc3[nH]c2c2ccc(OC)cc21	> 100 µM (inactive)	> 100 µM (inactive)	29.2 µM (inactive)	37.2 µM (inactive)	0.0426 µM (active)	62.2 µM (inactive)	29.3 µM (inactive)	> 100 µM (inactive)	22.6 µM (inactive)	70.5 µM (inactive)	63.2 µM (inactive)		55.2 µM (inactive)	30.2 µM (inactive)	24.6 µM (inactive)	63.1 µM (inactive)	40.7 µM (inactive)	> 100 µM (inactive)	80.7 µM (inactive)	47.9 µM (inactive)
O=C(CC1C=CCS1(=O)=O)NCc1ccccc1 (configuration not stated)	> 100 µM (inactive)	> 100 µM (inactive)	> 100 µM (inactive)	> 100 µM (inactive)	> 100 µM (inactive)	> 100 µM (inactive)	> 100 µM (inactive)	> 100 µM (inactive)	> 100 µM (inactive)	> 100 µM (inactive)	> 100 µM (inactive)		> 100 µM (inactive)	> 100 µM (inactive)	> 100 µM (inactive)	> 100 µM (inactive)	> 100 µM (inactive)	> 100 µM (inactive)	> 100 µM (inactive)	> 100 µM (inactive)
NC(=S)NNCC(=O)CC(O)(C(F)(F)F)C(F)(F)Cl (configuration not stated)	> 100 µM (inactive)	> 100 µM (inactive)	> 100 µM (inactive)	> 100 µM (inactive)	> 100 µM (inactive)		38.5 µM (inactive)		> 100 µM (inactive)	> 100 µM (inactive)	> 100 µM (inactive)	> 100 µM (inactive)	> 100 µM (inactive)	> 100 µM (inactive)	64.7 µM (inactive)	> 100 µM (inactive)	> 100 µM (inactive)	> 100 µM (inactive)	> 100 µM (inactive)	> 100 µM (inactive)
CCc1nc(N)c2nc(-c3cccs3)oc2n1	> 100 µM (inactive)	9.25 µM (inactive)	77.1 µM (inactive)	> 100 µM (inactive)	> 100 µM (inactive)	> 100 µM (inactive)	> 100 µM (inactive)	> 100 µM (inactive)	> 100 µM (inactive)	54.8 µM (inactive)	> 100 µM (inactive)	84.1 µM (inactive)	> 100 µM (inactive)	> 100 µM (inactive)	79.8 µM (inactive)	> 100 µM (inactive)	45.3 µM (inactive)	> 100 µM (inactive)		65.6 µM (inactive)
N#CC1=C(N)N(/N=C/c2ccco2)C(c2ccco2)C1(C#N)C#N (configuration not stated)	17.4 µM (inactive)	20.4 µM (inactive)	4.76 µM (inactive)	15.3 µM (inactive)	17.2 µM (inactive)	24.6 µM (inactive)	10.7 µM (inactive)	26.9 µM (inactive)	11.9 µM (inactive)	16 µM (inactive)	17.6 µM (inactive)	20.8 µM (inactive)	15.2 µM (inactive)	12.7 µM (inactive)	12.4 µM (inactive)		22.2 µM (inactive)	19.6 µM (inactive)	33.7 µM (inactive)	18.6 µM (inactive)
O=C(c1ccco1)N(C(=S)OC12CC3CC(CC(C3)C1)C2)c1ccccc1	42.3 µM (inactive)	34.7 µM (inactive)	16.9 µM (inactive)	17.7 µM (inactive)	31.2 µM (inactive)	32.9 µM (inactive)	13.7 µM (inactive)	27.9 µM (inactive)	24.4 µM (inactive)	25.7 µM (inactive)	23.4 µM (inactive)		33.3 µM (inactive)	19.9 µM (inactive)	47.2 µM (inactive)	37.9 µM (inactive)	32.6 µM (inactive)	27.8 µM (inactive)	23.4 µM (inactive)	24.9 µM (inactive)
CCOC(=O)c1nc2ccc(C(F)(F)F)cc2nc1Nc1ccc(OC)c(OC)c1	41.8 µM (inactive)	31.7 µM (inactive)	> 100 µM (inactive)	> 100 µM (inactive)	26.5 µM (inactive)	78.2 µM (inactive)	> 100 µM (inactive)	> 100 µM (inactive)	> 100 µM (inactive)	17.8 µM (inactive)	> 100 µM (inactive)	> 100 µM (inactive)	24.5 µM (inactive)	94.4 µM (inactive)	> 100 µM (inactive)	> 100 µM (inactive)	> 100 µM (inactive)	> 100 µM (inactive)	60 µM (inactive)	> 100 µM (inactive)
Cc1ccc2c3c(cnc2n1)C(=O)OCCN3C	> 100 µM (inactive)	> 100 µM (inactive)	> 100 µM (inactive)	> 100 µM (inactive)	> 100 µM (inactive)	> 100 µM (inactive)	> 100 µM (inactive)	> 100 µM (inactive)	> 100 µM (inactive)	> 100 µM (inactive)	> 100 µM (inactive)		> 100 µM (inactive)	> 100 µM (inactive)	> 100 µM (inactive)	> 100 µM (inactive)	> 100 µM (inactive)	> 100 µM (inactive)		> 100 µM (inactive)
N=C(CCl)NC1CN2CCC1CC2 (configuration not stated)	> 100 µM (inactive)	> 100 µM (inactive)	18.6 µM (inactive)	> 100 µM (inactive)	97.5 µM (inactive)	92.9 µM (inactive)	> 100 µM (inactive)	66.7 µM (inactive)	39.7 µM (inactive)	32.7 µM (inactive)	> 100 µM (inactive)	> 100 µM (inactive)	50.9 µM (inactive)	> 100 µM (inactive)	56.1 µM (inactive)	> 100 µM (inactive)	> 100 µM (inactive)	> 100 µM (inactive)	> 100 µM (inactive)	
CCOC(=O)c1nc2ccc(C(F)(F)F)cc2nc1Nc1cc(OC)c(OC)c(OC)c1	> 100 µM (inactive)	> 100 µM (inactive)	> 100 µM (inactive)	> 100 µM (inactive)	> 100 µM (inactive)	> 100 µM (inactive)	> 100 µM (inactive)	> 100 µM (inactive)	> 100 µM (inactive)	> 100 µM (inactive)	> 100 µM (inactive)	> 100 µM (inactive)		> 100 µM (inactive)	> 100 µM (inactive)	> 100 µM (inactive)	> 100 µM (inactive)	> 100 µM (inactive)	> 100 µM (inactive)	> 100 µM (inactive)
CCCCCc1cc2cc3c(c(O)c2c(=O)[nH]1)C1(CCC3)C(=O)c2c(O)c3c(c(O)c2C1=O)C(=O)C(OC)=CC3=O (configuration not stated)		1.49 µM (inactive)	0.586 µM (active)	0.515 µM (active)	0.746 µM (active)	0.807 µM (active)	0.673 µM (active)	1.01 µM (active)	0.582 µM (active)	0.573 µM (active)	0.916 µM (active)	0.386 µM (active)	0.502 µM (active)	0.561 µM (active)	0.0959 µM (active)	1.29 µM (inactive)	0.743 µM (active)	0.828 µM (active)	2.24 µM (inactive)	0.579 µM (active)
O=C(O)c1ccccc1/N=N/c1c(O)c(S(=O)(=O)O)cc2cc(S(=O)(=O)O)ccc12	> 100 µM (inactive)	> 100 µM (inactive)	> 100 µM (inactive)	> 100 µM (inactive)	> 100 µM (inactive)	> 100 µM (inactive)	> 100 µM (inactive)	> 100 µM (inactive)	> 100 µM (inactive)	> 100 µM (inactive)	> 100 µM (inactive)		> 100 µM (inactive)	> 100 µM (inactive)	> 100 µM (inactive)	> 100 µM (inactive)	> 100 µM (inactive)	> 100 µM (inactive)	> 100 µM (inactive)	> 100 µM (inactive)
Cc1ccc(S(=O)(=O)N/N=C2/CCC3(O)CC2(C)CCC2[C@H]3CC2(C)C)cc1 (some centres not stated)	34.3 µM (inactive)	37.7 µM (inactive)	12 µM (inactive)	16.5 µM (inactive)	31.8 µM (inactive)	68.1 µM (inactive)		33.3 µM (inactive)	11.4 µM (inactive)	35.9 µM (inactive)	20.3 µM (inactive)	38.4 µM (inactive)	52.6 µM (inactive)	24.8 µM (inactive)	> 100 µM (inactive)	24.9 µM (inactive)	35.5 µM (inactive)	37.3 µM (inactive)	32.4 µM (inactive)	25.7 µM (inactive)
CC(C)C[C@H](NC(=O)[C@H](Cc1cccc2ccccc12)NS(=O)(=O)c1cccc2cccnc12)B(O)O	< 0.0285 µM (active)	< 0.0225 µM (active)	< 0.01 µM (active)	< 0.01 µM (active)	0.0222 µM (active)		< 0.015 µM (active)	< 0.0122 µM (active)	< 0.01 µM (active)	< 0.0167 µM (active)	0.0223 µM (active)	< 0.01 µM (active)	0.0923 µM (active)	< 0.0133 µM (active)	< 0.01 µM (active)		< 0.0199 µM (active)	< 0.0226 µM (active)	0.359 µM (active)	0.279 µM (active)
